Tests used:
Type in all cases: in vivo, human
IgE = experiment: Study 2: Total IgE ELISA in interstitial fluid, effect of supplementation; conditions: for Concentration of IgE (log), MEAN: Supplement Yes
Method: (§1) The laser made four pores at each collection site.
(§2) The other skin analytes were measured in Study 2 using standard ELISA kits: MMP-1 (ELISA Cat # QIA55, Oncogene Research Products, Cambridge Mass.); Total IgE (ELISA Cat # RE59061, IBL, Hamburg, Germany distributed by KMI Diagnostics); Non Extraction IGF-1 (ELISA Cat # DSL-10-2800, Diagnostics Systems Laboratories, Webster Tex.); IL-1 RA (ELISA Cat # DRA00, R&D Systems, Minneapolis, Minn.); IL-1A (ELISA Cat # EH2IL1A, Pierce/Endogen, Rockford, Ill.).

IL-1 RA = experiment: Study 2: IL-1 RA ELISA in interstitial fluid, effect of supplementation; conditions: for Concentration of IL-1 RA (log), MEAN: Supplement Yes
Method: as §1, §2

IGF-1 = experiment: Study 2: IGF-1 ELISA in interstitial fluid, effect of supplementation; conditions: Supplement Yes
Method: as §1, §2

MMP-1 = experiment: Study 2: MMP-1 ELISA in interstitial fluid, effect of supplementation; conditions: for Concentration of MMP-1 (log), MEAN: Supplement Yes
Method: as §1, §2

IL-1A = experiment: Study 2: IL-1A ELISA in interstitial fluid, effect of supplementation; conditions: for Concentration of IL-1A (log), MEAN: Supplement Yes
Method: as §1, §2

O=C1O[C@H]([C@@H](O)CO)C(O)=C1O [Vitamin C]
Effect of vitamin C supplement on concentration of IgE in ISF (IgE): significantly increased
Concentration of IgE (log), MEAN (IgE; sun-exposed site ISF): 4.94
Concentration of IgE (log), MEAN (IgE; sun-protected site ISF): 18.50
Effect of vitamin C supplement on concentration of IL-1 RA in ISF (IL-1 RA): significantly increased
Concentration of IL-1 RA (log), MEAN (IL-1 RA; sun-exposed site ISF): 10140
Concentration of IL-1 RA (log), MEAN (IL-1 RA; sun-protected site ISF): 9492
Concentration of IGF-1, MEAN (IGF-1; sun-exposed site ISF): 76.83
Concentration of IGF-1, MEAN (IGF-1; sun-protected site ISF): 97.78
Effect of vitamin C supplement on concentration of MMP-1 in ISF (MMP-1): significantly increased
Concentration of MMP-1 (log), MEAN (MMP-1; sun-exposed site ISF): 0.64
Concentration of MMP-1 (log), MEAN (MMP-1; sun-protected site ISF): 0.91
Effect of vitamin C supplement on concentration of IL-1A in ISF (IL-1A): significantly increased
Concentration of IL-1A (log), MEAN (IL-1A; sun-exposed site ISF): 120.24
Concentration of IL-1A (log), MEAN (IL-1A; sun-protected site ISF): 191.5
